Source: patent US10941137B2, “Difluoromethyl-phenyl triazoles” (Boehringer Ingelheim International GmbH, priority 2018, dated 2021)

Key:
[1] = Metabolic stability in human liver microsomes (Human MST); format: in vitro ADME; conditions: pooled human liver microsomes, pH 7.6; human liver microsomes 1 mg/mL, 1 μM compound, NADPH 1 mM, 37° C.; read-out: Human MST t1/2
Method: Assessment of Metabolic Stability in Human Liver Microsomes (Human MST) The metabolic stability of the compounds according to the invention may be investigated as follows: The metabolic degradation of the test compound is assayed at 37° C. with pooled human liver microsomes. The final incubation volume of 100 μL per time point contains TRIS buffer pH 7.6 at room temperature (0.1 M), MgCl2 (5 mM), microsomal protein (1 mg/mL) and the test compound at a final concentration of 1 μM. Following a short pre-incubation period at 37° C., the reactions are initiated by addition of beta-nicotinamide adenine dinucleotide phosphate, reduced form (NADPH, 1 mM), and terminated by transferring an aliquot into solvent after different time points. After centrifugation (10000 g, 5 min), an aliquot of the supernatant is assayed by LCMS/MS for the amount of parent compound. The half-life (t½) is determined by the slope of the semi-logarithmic plot of the concentration-time profile.

[2] = biological target: T1, α5β2γ2 GABAA receptor (Homo sapiens, UniProt P18507+P31644); assay: Assay B: modulation of α5β2γ2 GABAA receptor, two-electrode voltage clamp in oocytes; format: cell-based; conditions: for EC50: oocytes, TEVC, co-application with GABA 0.5 μM (EC5-20), read-out: Assay B: GABAA α5β3γ2 EC50
T1 sequence (P31644 32-462): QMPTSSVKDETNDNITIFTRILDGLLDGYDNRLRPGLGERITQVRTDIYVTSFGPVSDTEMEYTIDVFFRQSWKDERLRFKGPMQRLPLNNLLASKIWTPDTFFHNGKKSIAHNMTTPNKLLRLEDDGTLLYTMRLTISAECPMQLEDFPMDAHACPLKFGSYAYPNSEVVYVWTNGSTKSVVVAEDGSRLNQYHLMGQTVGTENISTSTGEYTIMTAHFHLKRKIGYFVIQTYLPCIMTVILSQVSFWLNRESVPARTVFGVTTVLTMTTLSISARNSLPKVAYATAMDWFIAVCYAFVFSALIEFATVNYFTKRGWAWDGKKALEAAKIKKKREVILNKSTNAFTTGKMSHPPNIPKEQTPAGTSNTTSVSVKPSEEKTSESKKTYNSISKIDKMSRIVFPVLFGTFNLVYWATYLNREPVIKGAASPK
T1 sequence (P18507 40-376 limits assumed): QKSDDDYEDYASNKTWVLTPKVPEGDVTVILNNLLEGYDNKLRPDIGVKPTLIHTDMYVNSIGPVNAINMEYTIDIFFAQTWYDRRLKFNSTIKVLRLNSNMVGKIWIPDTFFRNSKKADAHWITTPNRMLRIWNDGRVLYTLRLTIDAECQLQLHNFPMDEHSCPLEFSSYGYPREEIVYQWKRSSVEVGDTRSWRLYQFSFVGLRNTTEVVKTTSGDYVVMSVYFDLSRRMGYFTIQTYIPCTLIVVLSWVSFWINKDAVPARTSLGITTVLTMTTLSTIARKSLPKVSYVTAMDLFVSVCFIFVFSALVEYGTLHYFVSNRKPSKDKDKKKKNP
Method: Assay B: In vitro evaluation of modulation of α5β2γ2 GABAA receptor.
Modulatory efficacy of compounds of formula (I) is determined electrophysiological recordings in oocytes using the two-electrode voltage clamp (TEVC) technique. Oocytes are injected with cRNA for human GABAA receptor subunits α5, β2 and γ2 in a 3:1:3 ratio and modulatory efficacy is evaluated by co-applications with a submaximal EC5-20 GABA concentration (0.5 μM) termed GABA control. As a standard, the compounds are tested in five concentrations (3.16, 0.316, 0.0316, 0.00316 and 0.000316 μM) on each oocyte starting with the lowest concentration. Background subtracted peak current amplitudes are normalized to the respective GABA control current, converted to % change and depicted +/−S.E.M. as a function of increasing compound concentrations. Plotted datapoints are fitted to the empirical Hill equation using non-linear regression. 95% confidence intervals for maximal efficacy (Bottom) and potency (Log EC50) are derived from this fitting routine.

[3] = system: human MDR1 P-gp; assay: Efflux in MDCK cells transfected with the human MDR1 gene (MDCK-PGP permeability); format: in vitro ADME, canine; conditions: dog, pH 7.4, 37° C.; for efflux ratio: PEBA/PEAB; for Papp A→B: apical-to-basal apparent permeability (PEAB)
Method: Assessment of Efflux in Madin-Darby Canine Kidney (MDCK) Cells Transfected with the 30 Human MDR1 Gene to Assess Brain Penetration (Drug Metabolism and Disposition February 2008, 36 (2) 268-275; DOI: https://doi.org/10.1124/dmd.107.017434) Apparent permeability coefficients (PE) of the compounds across the MDCK-MDR1 cell monolayers are measured (pH 7.4, 37° C.) in apical-to-basal (AB) and basal-to-apical (BA) transport direction. AB permeability (PEAB) represents drug absorption from the blood into the 35 brain and BA permeability (PEBA) drug efflux from the brain back into the blood via both passive permeability as well as active transport mechanisms mediated by efflux and uptake transporters that are expressed on the MDCK-MDR1 cells, predominantly by the overexpressed human MDR1 P-gp. The compounds are assigned to permeability/absorption classes by comparison of the AB permeabilities with the AB permeabilities of reference compounds with known in vitro permeability and oral absorption in the human. Identical or similar permeabilities in both transport directions indicate passive permeation, vectorial permeability points to additional active transport mechanisms. Higher PEBA than PEAB indicates the involvement of active efflux mediated by MDR1 P-gp. Active transport is concentration-dependently saturable.
MDCK-MDR1 cells (1-2×10e5 cells/1 cm2 area) are seeded on filter inserts (Costar transwell polycarbonate or PET filters, 0.4 μm pore size) and cultured (DMEM) for 7 days. Subsequently, the MDR1 expression is boosted by culturing the cells with 5 mM sodium butyrate in full medium for 2 days. Compounds are dissolved in appropriate solvent (like DMSO, 1-20 mM stock solutions). Stock solutions are diluted with HTP-4 buffer (128.13 mM NaCl, 5.36 mM KCl, 1 mM MgSO4, 1.8 mM CaCl2, 4.17 mM NaHCO3, 1.19 mM Na2HPO4×7H2O, 0.41 mM NaH2PO4xH2O, 15 mM HEPES, 20 mM glucose, 0.25% BSA, pH 7.4) to prepare the transport solutions (0.1-300 μM compound, final DMSO <=0.5%). The transport solution (TL) is applied to the apical or basolateral donor side for measuring A-B or B-A permeability (3 filter replicates), respectively. The receiver side contains the same buffer as the donor side. Samples are collected at the start and end of experiment from the donor and at various time intervals for up to 2 hours also from the receiver side for concentration measurement by HPLC-MS/MS or scintillation counting. Sampled receiver volumes are replaced with fresh receiver solution.

[4] = biological target: T2, human GABAA α5β3γ2s receptor (Homo sapiens, UniProt P18507+P31644); assay: Assay A: in vitro inhibition of 3H-flumazenil binding, HEK cells expressing human GABAA α5β3γ2s receptor; conditions: 3H-flumazenil 1 nM, HEK-293 membranes, 40 min at 2° C.; Ki from IC50 by Cheng and Prusoff
T2 sequence (P18507 1-475): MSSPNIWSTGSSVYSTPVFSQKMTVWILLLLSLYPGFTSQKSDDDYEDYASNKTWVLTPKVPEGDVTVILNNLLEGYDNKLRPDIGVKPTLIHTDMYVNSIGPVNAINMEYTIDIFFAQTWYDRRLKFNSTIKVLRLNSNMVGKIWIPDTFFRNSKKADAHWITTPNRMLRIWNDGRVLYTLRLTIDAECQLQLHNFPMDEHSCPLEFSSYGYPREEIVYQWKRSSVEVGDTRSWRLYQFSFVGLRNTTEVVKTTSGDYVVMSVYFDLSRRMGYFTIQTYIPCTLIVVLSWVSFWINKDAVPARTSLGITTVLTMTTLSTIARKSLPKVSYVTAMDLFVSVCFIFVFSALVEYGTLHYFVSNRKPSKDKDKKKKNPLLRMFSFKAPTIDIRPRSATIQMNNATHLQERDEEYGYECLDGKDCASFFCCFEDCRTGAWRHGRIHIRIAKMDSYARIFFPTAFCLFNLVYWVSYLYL
T2 sequence (P31644 1-462): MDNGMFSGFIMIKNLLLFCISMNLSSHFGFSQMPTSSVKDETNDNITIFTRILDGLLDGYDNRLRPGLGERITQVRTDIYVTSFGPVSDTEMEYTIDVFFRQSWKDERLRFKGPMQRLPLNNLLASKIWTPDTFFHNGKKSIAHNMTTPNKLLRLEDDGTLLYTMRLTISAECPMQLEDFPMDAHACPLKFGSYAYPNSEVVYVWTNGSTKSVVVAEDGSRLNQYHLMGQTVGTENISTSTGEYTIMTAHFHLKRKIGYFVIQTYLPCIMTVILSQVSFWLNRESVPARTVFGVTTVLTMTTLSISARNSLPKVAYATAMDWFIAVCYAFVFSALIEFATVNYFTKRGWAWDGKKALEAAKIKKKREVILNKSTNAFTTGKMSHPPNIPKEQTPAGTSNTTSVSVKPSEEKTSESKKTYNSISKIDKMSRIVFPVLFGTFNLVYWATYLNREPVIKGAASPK
Method: HEK-293 cell lines with stable expression of recombinant human GABAA α5β3γ2s receptors (plasmid H46/E9/B10) are seeded in T175 polystyrene flasks or roller bottles (1700 cm^2, Fisher Scientific CCI-431191), and cultured (37 C, 5% CO˜) in Dulbecco's Modified Eagle Medium (DMEM) with GlutaMAX™ supplemented with 10% fetal bovine serum and one or both of the following antibiotics: hygromycin B ([…]; γ2 subunit) or G418 (0.5 mg/ml; […]).
When the cultures reach confluency, the DMEM is removed and the cells are washed (10 ml for T175 flasks; 50 ml for roller bottles) once in Dulbecco's Phosphate Buffered Saline (DPBS). Following addition of DPBS to the cultures (10 ml for T175 flasks; 100 ml for roller bottles) for approximately 5 min cells are easily detached from the surface by shaking or tapping the flask gently. The cell suspension is transferred to Falcon tubes and centrifuged at 23,500×g for 10 min at 2° C. The pellet is washed once in 15 ml Tris-citrate buffer (50 mM, pH 7.1) using an Ultra-Turrax homogenizer and centrifuged at 2° C. for 10 min at 27,000×g. The washed pellet is re-suspended in 15 ml Tris-citrate buffer and frozen at −80° C. until the day of the binding experiment.
On the day of the experiment the cell membrane preparation is thawed and centrifuged at 2° C. for 10 min at 27,000×g. The pellet is re-suspended, using an Ultra-Turrax homogenizer in Tris-citrate buffer, to 15-50 µg protein per assay and then used for binding assays.
Non-specific binding is determined using clonazepam (1 μM, final concentration).
All dilutions of test compounds and incubation of assay are performed in glass vials/96-vial plates. […] Compounds are dissolved in 100% DMSO (10 mM stock), diluted in 48% ethanol-water, and tested in triplicate in serial 1:3 or 1:10 dilutions. When screening large numbers of compounds only one concentration of each compound is tested in single wells. Reference compounds are not included routinely, but for each experiment performed total and nonspecific binding is compared to data obtained during validation of the assay.
Binding is either terminated by rapid filtration onto
1) Whatman GF/C glass fibre filters using a Brandel Cell harvester, followed by 5 washes with 1 ml ice-cold buffer or onto 2) UniFilter GF/C glass fibre filter plates using a Tomtec cell harvester, followed by washing with approximately 5 ml ice-cold buffer.
The amount of radioactivity on the filters is determined by conventional liquid scintillation counting using a
1) Tri-Garb™ counter (PerkinElmer Life and Analytical Sciences) for separate large filters or
2) Topcount™ counter (PerkinElmer Life and Analytical Sciences) for 96-well filter plates. Specific binding is total binding minus non-specific binding.
For screening purposes n is set to 1. The IC50 value is calculated from the concentration response curves by the non-linear regression method using the curve-fitting program GraphPad Prism. […]

Compound	half-life at 1 μM [1]	Assay B: GABAA α5β3γ2 Emax vs GABA [2]	EC50 [2]	efflux ratio [3]	Papp A→B [3]	Ki [4]
Cc1nnn(-c2ccc(C(F)F)cc2)c1COc1ccc(-c2ccn[nH]2)nn1 [Example 10]	> 2.17 h	-18%	5.8 nM	1.7	22.4 ×10⁻⁶ cm/s	–
Cc1nnn(-c2ccc(C(F)F)cc2)c1COc1ccc(-c2cnccn2)nn1 [Example 13]	> 2.17 h	-23%	9 nM	0.5	69 ×10⁻⁶ cm/s	–
Cc1nnn(-c2ccc(C(F)F)cc2)c1COc1ccc(-n2cnc(C(=O)N(C)C)c2)nn1 [Example 16]	> 2.17 h	0%	–	–	–	0.16 nM
Cc1nnn(-c2ccc(C(F)F)cc2)c1COc1ccc(-n2cncn2)nn1 [Example 28, 3-({1-[4-(difluoromethyl)phenyl]-4-methyl-1H-1,2,3-triazol-5-yl}methoxy)-6-(1H-1,2,4-triazol-1-yl)pyridazine]	> 2.17 h	-25%	5.5 nM	0.6	68.7 ×10⁻⁶ cm/s	–
Cc1nnn(-c2ccc(C(F)F)cc2)c1COc1ccc(-n2nc(C#N)cc2C)nn1 [Example 34]	–	-4.3%	–	–	–	0.035 nM

Further compounds by falling EC50 [2], results first:

half-life at 1 μM [1]	Assay B: GABAA α5β3γ2 Emax vs GABA [2]	EC50 [2]	efflux ratio [3]	Papp A→B [3]	Ki [4]	Compound
–	-12%	2 nM	–	–	0.27 nM	Cc1nnn(-c2ccc(C(F)F)cc2)c1COc1ccc(-n2cnc([S+](C)[O-])c2)nn1 (stereo not shown) [Example 23]
> 2.17 h	-23.3%	1.5 nM	2.6	18.1 ×10⁻⁶ cm/s	–	Cc1nnn(-c2ccc(C(F)F)cc2)c1COc1ccc(-n2cnc(C#N)c2)nn1 [Example 1, 1-[6-({1-[4-(difluoromethyl)phenyl]-4-methyl-1H-1,2,3-triazol-5-yl}methoxy)pyridazin-3-yl]-1H-imidazole-4-carbonitrile]
